Each compound was assayed on monocytic THP1 cells infected with HIV VSV-G pseudotyped GFP-NEF reporter virus (assay: cells). Conditions: Human immunodeficiency virus 1, THP-1, 24 h.
Format: cell-based

Compound	EC50
Cc1cc(/C=C/C#N)cc(C)c1Oc1nc(NC23CC(C#N)(C2)C3)nc2c1C1(C)OCC(C)(C)CN1C2=O (centres unmarked) [Compound 197, (E)-3-((4-(4-(2-cyanovinyl)-2,6-dimethylphenoxy)-4b,7,7-trimethyl-10-oxo-4b,7,8,10-tetrahydro-6H-pyrimido[5′,4′:3,4]pyrrolo[2,1-b][1,3]oxazin-2-yl)amino)bicyclo[1.1.1]pentane-1-carbonitrile]	97.3 nM
CCOc1nn(CC)c2c(Oc3c(C)cc(/C=C/C#N)cc3C)nc(NC34CC(C#N)(C3)C4)nc12 [Compound 294, (E)-3-((7-(4-(2-cyanovinyl)-2,6-dimethylphenoxy)-3-ethoxy-1-ethyl-1H-pyrazolo[4,3-d]pyrimidin-5-yl)amino)bicyclo[11.1.1]pentane-1-carbonitrile]	23.3 nM
Cc1cc(/C=C/C#N)cc(C)c1Oc1nc(NC23CC(C#N)(C2)C3)nc2c1/C(=C/F)N(C1CC1)C2=O [Compound 268, 3-(((Z)-4-(4-((E)-2-cyanovinyl)-2,6-dimethylphenoxy)-6-cyclopropyl-5-(fluoromethylene)-7-oxo-6,7-dihydro-5H-pyrrolo[3,4-d]pyrimidin-2-yl)amino)bicyclo[1.1.1]pentane-1-carbonitrile]	173 nM
Cc1cc(/C=C/C#N)cc(C)c1Oc1nc(NC23CC(C#N)(C2)C3)nc2c(C)nn(C)c12 [Compound 121]	53.2 nM
Cc1cc(/C=C/C#N)cc(C)c1Oc1nc(NC23CC(C#N)(C2)C3)nc2c1nc1n2CCCO1 (single isomer, unassigned) [Compound 183, (E)-3-((4-(4-(2-cyanovinyl)-2,6-dimethylphenoxy)-8,9-dihydro-7H-[1,3]oxazino[3,2-e]purin-2-yl)amino)bicyclo[1.1.1]pentane-1-carbonitrile]	80 nM
Cc1cc(/C=C/C#N)c(C(F)(F)F)c(C)c1Oc1nc(NC23CC(C#N)(C2)C3)nc2nn(C)cc12 [Compound 4, (E)-3-((4-(4-(2-cyanovinyl)-2,6-dimethyl-3-(trifluoromethyl)phenoxy)-2-methyl-2H-pyrazolo[3,4-d]pyrimidin-6-yl)amino)bicyclo[1.1.1]pentane-1-carbonitrile]	1490 nM
Cc1cc(/C=C/C#N)cc(C)c1Oc1nc(NC23CC(C#N)(C2)C3)nc2nc3n(c12)CC1(CC1)CO3 [Compound 187, (E)-3-((4′-(4-(2-cyanovinyl)-2,6-dimethylphenoxy)-6′H,8′H-spiro[cyclopropane-1,7′-[1,3]oxazino[2,3-f]purin]-2′-yl)amino)bicyclo[1.1.1]pentane-1-carbonitrile]	36.5 nM
Cc1cc(/C=C/C#N)cc(C)c1Oc1nc(NC23CC(C#N)(C2)C3)nc2c1C(O)NC2=O (centres unmarked) [Compound 286, (E)-3-((4-(4-(2-cyanovinyl)-2,6-dimethylphenoxy)-5-hydroxy-7-oxo-6,7-dihydro-5H-pyrrolo[3,4-d]pyrimidin-2-yl)amino)bicyclo[1.1.1]pentane-1-carbonitrile]	72.4 nM
Cc1cc(/C=C/C#N)cc(C)c1Oc1nc(NC23CC(C#N)(C2)C3)nc2c1C(C)N(C)C2=O (centres unmarked) [Compound 140, (E)-3-((4-(4-(2-cyanovinyl)-2,6-dimethylphenoxy)-5,6-dimethyl-7-oxo-6,7-dihydro-5H-pyrrolo[3,4-d]pyrimidin-2-yl)amino)bicyclo[1.1.1]pentane-1-carbonitrile]	14.3 nM
Cc1cc(/C=C/C#N)cc(C)c1Oc1nc(NC23CC(C#N)(C2)C3)nc2c1[C@@H](C)N(c1cnn(C)c1)C2=O [Compound 313, (R,E)-3-((4-(4-(2-cyanovinyl)-2,6-dimethylphenoxy)-5-methyl-6-(1-methyl-1H-pyrazol-4-yl)-7-oxo-6,7-dihydro-5H-pyrrolo[3,4-d]pyrimidin-2-yl)amino)bicyclo[1.1.1]pentane-1-carbonitrile]	468 nM
Cc1cc(/C=C/C#N)cc(C)c1Oc1nc(NC23CC(C#N)(C2)C3)nc2c1c(C(F)F)nn2C [Compound 93, (E)-3-((4-(4-(2-cyanovinyl)-2,6-dimethylphenoxy)-3-(difluoromethyl)-1-methyl-1H-pyrazolo[3,4-d]pyrimidin-6-yl)amino)bicyclo[1.1.1]pentane-1-carbonitrile]	37.7 nM
